Data taken from paper PMC8922279, “Identification of β-Lactams Active against Mycobacterium tuberculosis by a Consortium of Pharmaceutical Companies and Academic Institutions” (ACS Infectious Diseases, 2022).
In brackets after ≈: the same amount, converted by molar mass.

Assays:
in vivo = details: female, CD-1, mouse
S. aureus = test: Microbial spectrum, S. aureus; format: cell-based, Staphylococcus aureus
in vitro [1] = details: human, plasma, Plasma stability % Remaining
hERG = biological target: T1, hERG (Homo sapiens, UniProt Q12809); test: hERG channel measurements (QPatch automated patch clamp); format: cell-based; details: HEK293 cells stably transfected with hERG (inducible), pH 7.4
T1 construct: expressed in transfected cells
T1 sequence (Q12809 whole entry): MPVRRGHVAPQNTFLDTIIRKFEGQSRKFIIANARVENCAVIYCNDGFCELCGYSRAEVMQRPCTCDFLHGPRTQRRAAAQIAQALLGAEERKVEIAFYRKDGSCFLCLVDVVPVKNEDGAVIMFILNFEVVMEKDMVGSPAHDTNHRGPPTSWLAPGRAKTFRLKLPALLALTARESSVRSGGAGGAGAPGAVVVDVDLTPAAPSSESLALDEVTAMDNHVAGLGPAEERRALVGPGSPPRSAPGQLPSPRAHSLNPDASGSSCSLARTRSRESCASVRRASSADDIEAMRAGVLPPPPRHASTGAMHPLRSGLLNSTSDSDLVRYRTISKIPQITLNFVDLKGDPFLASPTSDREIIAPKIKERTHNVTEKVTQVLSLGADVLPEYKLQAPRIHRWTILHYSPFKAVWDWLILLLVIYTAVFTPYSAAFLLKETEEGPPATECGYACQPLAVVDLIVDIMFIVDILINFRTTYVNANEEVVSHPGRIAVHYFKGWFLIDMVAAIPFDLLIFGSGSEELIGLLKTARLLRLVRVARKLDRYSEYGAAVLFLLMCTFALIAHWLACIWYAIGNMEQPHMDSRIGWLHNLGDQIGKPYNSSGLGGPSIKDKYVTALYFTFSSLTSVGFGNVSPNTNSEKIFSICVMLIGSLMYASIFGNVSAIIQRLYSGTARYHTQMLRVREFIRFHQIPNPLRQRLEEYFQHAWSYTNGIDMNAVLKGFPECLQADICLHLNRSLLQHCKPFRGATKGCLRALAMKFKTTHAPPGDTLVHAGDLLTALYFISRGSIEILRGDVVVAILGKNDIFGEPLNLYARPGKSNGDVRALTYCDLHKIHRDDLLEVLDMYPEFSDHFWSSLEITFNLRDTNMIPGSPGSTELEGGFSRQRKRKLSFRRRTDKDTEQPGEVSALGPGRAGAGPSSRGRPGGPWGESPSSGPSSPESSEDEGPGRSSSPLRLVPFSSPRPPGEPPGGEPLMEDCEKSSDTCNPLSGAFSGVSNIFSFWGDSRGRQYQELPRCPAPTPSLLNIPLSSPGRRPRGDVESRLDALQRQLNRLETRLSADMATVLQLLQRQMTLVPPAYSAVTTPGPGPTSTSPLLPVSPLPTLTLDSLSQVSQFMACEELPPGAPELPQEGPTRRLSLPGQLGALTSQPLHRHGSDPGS
Procedure: The potency of the compounds in inhibiting the human ERG potassium channel (hERG) tail current was assessed in a recombinant HEK293 cell line stably transfected with hERG cDNA under an inducible promoter using the rapid ICE (rapid ion channel electrophysiology) assay. Rapid ICE is an automated patch clamp assay utilizing a QPatch HTX system (Sophion Bioscience A/S). Briefly, inducible HEK hERG cells were cultivated in minimum essential medium supplemented with 10% FBS, 1% nonessential amino acids, 1% sodium pyruvate, 2 mM L-glutamine, 15 μg/mL blasticidin, and 100 μg/mL hygromycin. hERG channel induction was obtained by adding 10 μg/mL tetracycline for 24, 48, or 72 h before recordings. On the day of the experiment, cells were detached with TrypLE and prepared to be loaded on the instrument. Cells were resuspended in 7 mL of serum-free media containing 25 mM Hepes and soybean trypsin inhibitor and immediately placed in the cell storage tank of the machine. […] The voltage protocol was run and recorded continuously during the experiment. […] The average of tail current amplitude values recorded from four sequential voltage pulses was used to calculate for each cell the effect of the test substance by calculating the residual current (% control) compared with vehicle pretreatment. […]

[2] = Cytotoxicity against HepG2 cells (CellTiter-Glo); format: cell-based, human; details: human, HepG2 cells
Procedure: (§1) Compounds were tested for cytotoxicity against HepG2 cells as previously described.[48],[69],[70] Briefly, cells were exposed to compounds for 48–72 h, and viability was measured using CellTiter-Glo (Promega).

HepG2 cells = test: Cytotoxicity against HepG2 cells (CellTiter-Glo); format: cell-based, human; details: Table S4
Procedure: as §1

in vitro [3] = details: SD, rat, plasma, Plasma stability % Remaining
Mtb H37Rv = test: MIC90 against nonreplicating (NR, 4-stress) Mtb H37Rv, with or without clavulanate; format: cell-based, Mycobacterium tuberculosis; details: 4-stress nonreplicating, Table S4
in vitro [4] = details: human, plasma, pH 7.4, % bound to plasma
in vitro [5] = details: beagle, dog, plasma
E. coli = test: Microbial spectrum, E. coli; format: cell-based, Escherichia coli
[6] = simulated gi fluid, 10 μM, pH 6.5
C. albicans = test: Microbial spectrum, C. albicans; format: cell-based, Candida albicans

## O=C(Cc1ccc(C2=NCCN2)cc1)N[C@@H]1C(=O)N2C(C(=O)O)=C(CSc3nncs3)CS[C@H]12 [TBBL-0000316]
In vivo; iv, 5 mg/kg
  AUC(0-t): 37100 ng·h/mL
  Vd: 0.11 L/kg
  clearance: 2.25 mL/min/kg
  half-life: 34.8 min
  k el: 0.000333 s⁻¹
In vivo; po, 25 mg/kg
  AUC(0-t): 542 ng·h/mL
  bioavailability: 0.3%
S. aureus; Staphylococcus aureus, S. aureus, with 4 μg/mL clavulanate
  MIC90: 0.86 µM
S. aureus; clavulanate 4 μg/mL, Table S4
  S.aureus R + CLAV (MIC90): 0.9 µM
In vitro [1]
  remaining at 2 h, 2 μM: 86.1%
hERG
  IC50 at 5 min: > 50 µM
[2]
  IC50: > 100 µM
HepG2 cells
  HepG2 LD50: > 100 µM
In vitro [3]
  remaining at 2 h, 2 μM: 85.9%
Mtb H37Rv; clavulanate 4 μg/mL
  Mtb H37Rv NR + CLAV (MIC90): > 100 µM
Mtb H37Rv; no clavulanate
  Mtb H37Rv NR (MIC90): > 100 µM
In vitro [4]
  fraction unbound at 4 h, 2 μM: 0.619
In vitro [5]
  remaining at 2 h, 2 μM: 77.3%
E. coli; Escherichia coli, E. coli
  MIC90: 31.8 µM (≈ 16.4 µg/mL)
E. coli; clavulanate 4 μg/mL, Table S4
  E.coli R + CLAV (MIC90): 31.8 µM
[6]; 6 h
  FaSSIF Stability, % remaining, 6h: 95%
[6]; 24 h
  FaSSIF Stability, % remaining, 24h: 84%
C. albicans; Candida albicans, C. albicans
  MIC90: > 100 µM
C. albicans; no clavulanate, Table S4
  C.albicans R (MIC90): > 100 µM
